The subject of series [1] is T1, TDCEFS (tyrosine decarboxylase from E. faecalis v583).
T1 construct: 6xHis; made in house; host or cells: Escherichia coli BL21 (DE3), plasmid pSK18 (pET15b)
Nature of the series: Michaelis–Menten enzyme kinetics of purified tyrosine decarboxylase. Type of series: biochemical, Enterococcus faecalis v583. The source says: (§1) To further characterize the substrate specificity and kinetic parameters of the bacterial TDCs, tdc genes from E. faecalis v583 (TDCEFS) and E. faecium W54 (TDCEFM and ^PTDCEFM) were expressed in Escherichia coli BL21 (DE3) and then purified.
(§2) The human DOPA decarboxylase gene cloned in pET15b was ordered from GenScript (Piscataway, USA) (Supplementary Table 6). TDC-encoding genes from E. faecalis v583 (TDCEFS, accession: EOT87933), E. faecium W54 (TDCEFM, accession: MH358385; ^PTDCEFM, accession: MH358384) were amplified using Phusion High-fidelity DNA polymerase and primers listed in Supplementary Table 8. All amplified genes were cloned in pET15b, resulting in pSK18, pSK11, and pSK22, respectively (Supplementary Table 6). Plasmids were maintained in E. coli DH5α and verified by Sanger sequencing before transformation to E. coli BL21 (DE3). Overnight cultures were diluted 1:50 in fresh LB medium with the appropriate antibiotic and grown to OD600 = 0.7–0.8. Protein translation was induced with 1 mM Isopropyl β-D-1-thiogalactopyranoside (IPTG, 11411446001, Roche Diagnostics) and cultures were incubated overnight at 18 °C. The cells were washed with 1/5th of 1 × ice-cold PBS and stored at −80 °C or directly used for protein isolation. Cell pellets were thawed on ice and resuspended in 1/50th of buffer A (300 mM NaCl; 10 mM imidazole; 50 mM KPO4, pH 7.5) containing 0.2 mg/mL lysozyme (105281, Merck) and 2 µg/mL DNAse (11284932001, Roche Diagnostics), and incubated for at least 10 min on ice before sonication (10 cycles of 15 s with 30 s cooling at 8 microns amplitude) using Soniprep-150 plus (Beun de Ronde, Abcoude, The Netherlands). Cell debris were removed by centrifugation at 20,000 × g for 20 min at 4 °C. The 6 × his-tagged proteins were purified using a nickel-nitrilotriacetic acid (Ni-NTA) agarose matrix (30250, Qiagen). Cell-free extracts were loaded on 0.5 ml Ni-NTA matrixes and incubated on a roller shaker for 2 h at 4 °C. The Ni-NTA matrix was washed three times with 1.5 ml buffer B (300 mM NaCl; 20 mM imidazole; 50 mM KPO4, pH 7.5) before elution with buffer C (300 mM NaCl; 250 mM imidazole; 50 mM KPO4, pH 7.5). Imidazole was removed from purified protein fractions using Amicon Ultra centrifugal filters (UFC505024, Merck) and washed three times and reconstituted in buffer D (50 mM Tris-HCL; 300 mM NaCl; pH 7.5) for TDCEFS, and TDCEFM, buffer E (100 mM KPO4; pH 7.4) for ^PTDCEFM and buffer F (100 mM KPO4; 0.1 mM pyridoxal-5-phosphate; pH 7.4) for DDC. Protein concentrations were measured spectrophotometrically (Nanodrop 2000, Isogen, De Meern, The Netherlands) using the predicted extinction coefficient and molecular weight from ExPASy ProtParam tool (www.web.expasy.org/protparam/).
(§3) Enzyme kinetics were performed in 200 mM potassium acetate buffer containing 0.1 mM PLP (pyridoxal-5-phosphate, P9255, Sigma, The Netherlands) and 10 nM of enzyme at pH 5 for TDCEFS and TDCEFM, and pH 4.5 for ^PTDCEFM. […] Michaelis–Menten kinetic curves were fitted using GraphPad Prism 7. […] Reactions were stopped with 0.7% HClO4, filtered and analyzed on the HPLC-ED-system described below.

Series [2] deals with E. faecium W54. Kind of series: Bacterial cultures incubated anaerobically with levodopa, HPLC-ED. Type of series: cell-based, Enterococcus faecium W54. As to conditions: E. faecium W54 (enterococcal isolates), overnight culture, anaerobic, 37 °C, 100 µM levodopa.
Series [3] deals with T2, ^PTDCEFM (paralogous tyrosine decarboxylase from E. faecium W54).
T2 construct: 6xHis; made in house; host or cells: Escherichia coli BL21 (DE3), plasmid pSK22 (pET15b)
Kind of series: Michaelis–Menten enzyme kinetics of purified paralogous tyrosine decarboxylase. Type of series: biochemical, Enterococcus faecium W54.
Text: as §1, §2, §3

Series [4] concerns E. faecalis v583. Nature of the series: Bacterial cultures incubated anaerobically with levodopa, HPLC-ED. Type of series: cell-based, Enterococcus faecalis v583. As to conditions: E. faecalis v583 (enterococcal isolates), overnight culture, anaerobic, 37 °C, 100 µM levodopa.
The next series deals with L. brevis W63. The description is as above. As to conditions: L. brevis W63, overnight culture, anaerobic, 37 °C, 100 µM levodopa.
In series [5] the test system is TDCEFM (tyrosine decarboxylase from E. faecium W54). Nature of the series: Michaelis–Menten enzyme kinetics of purified tyrosine decarboxylase. Type of series: biochemical, Enterococcus faecium W54.
Text: as §1, §2, §3

Series [6] has as its target bacterial TDCs versus human DOPA decarboxylase. Nature of the series: Comparison of the inhibitory constants (Ki^TDC/Ki^DDC). As to conditions: over the three bacterial TDCs. Type of series: biochemical. On the procedure: as §3
The next series addresses T3, TDCEFS (Enterococcus faecalis, UniProt Q838D6).
T3 construct: 6xHis; made in house; host or cells: Escherichia coli BL21 (DE3), plasmid pSK18 (pET15b)
Kind of series: IC50 curves with carbidopa as inhibitor, levodopa as substrate. The class given is biochemical, Enterococcus faecalis v583.

Series [7] deals with E. faecalis v583. Nature of the series: Levodopa decarboxylation by stationary batch cultures co-incubated with human DOPA decarboxylase inhibitors. As to conditions: E. faecalis v583, OD600 ~2.0, stationary phase, 15 min, 100 µM levodopa, equimolar or 21.7 µM carbidopa.
Series [8] deals with T4, human DOPA decarboxylase (DDC) (Homo sapiens, UniProt P20711).
T4 construct: 6xHis; host or cells: Escherichia coli BL21 (DE3)
T4 sequence (P20711 1-480): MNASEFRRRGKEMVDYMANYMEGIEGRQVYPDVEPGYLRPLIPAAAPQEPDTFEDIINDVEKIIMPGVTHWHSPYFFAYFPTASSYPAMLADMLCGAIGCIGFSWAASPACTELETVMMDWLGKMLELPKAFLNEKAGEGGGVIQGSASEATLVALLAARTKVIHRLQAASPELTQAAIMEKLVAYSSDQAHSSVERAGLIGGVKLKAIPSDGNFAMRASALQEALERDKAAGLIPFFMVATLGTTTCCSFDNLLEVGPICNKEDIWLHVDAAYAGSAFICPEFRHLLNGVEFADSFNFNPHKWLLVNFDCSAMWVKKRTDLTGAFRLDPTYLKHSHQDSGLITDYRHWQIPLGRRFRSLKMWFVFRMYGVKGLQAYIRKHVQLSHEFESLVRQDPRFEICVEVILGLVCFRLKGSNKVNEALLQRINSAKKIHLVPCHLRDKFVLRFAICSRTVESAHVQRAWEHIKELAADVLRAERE
Nature of the series: IC50 curves with carbidopa as inhibitor, levodopa as substrate. The class given is biochemical.

The target of the next series is TDCEFM (Enterococcus faecium, UniProt Q3Y2S5). Described as above. Type of series: biochemical, Enterococcus faecium W54.
Another series deals with T5, ^PTDCEFM (Enterococcus faecium, UniProt A0A481NV25).
T5 construct: 6xHis; made in house; host or cells: Escherichia coli BL21 (DE3), plasmid pSK22 (pET15b)
Described as above. Type of series: biochemical, Enterococcus faecium W54.

Series [9] deals with E. faecium W54. Kind of series: Levodopa decarboxylation by stationary batch cultures co-incubated with human DOPA decarboxylase inhibitors. As to conditions: E. faecium W54, OD600 ~2.0, stationary phase, 15 min, 100 µM levodopa, equimolar or 21.7 µM carbidopa.
Substrate in series [10]: N[C@@H](Cc1ccc(O)c(O)c1)C(=O)O
Kind of series: purified protein, by the assay type. As to conditions: other: DDC, levodopa as substrate, as used for Ki.

Where [11] appears, read: pH 5.0, 10 nM enzyme, substance as substrate.
Setting [12] is: ^PTDCEFM, pH 4.5, 10 nM enzyme, substance as substrate.
Where [13] appears, read: levodopa as substrate, as used for Ki.

T5 sequence (A0A481NV25 whole entry): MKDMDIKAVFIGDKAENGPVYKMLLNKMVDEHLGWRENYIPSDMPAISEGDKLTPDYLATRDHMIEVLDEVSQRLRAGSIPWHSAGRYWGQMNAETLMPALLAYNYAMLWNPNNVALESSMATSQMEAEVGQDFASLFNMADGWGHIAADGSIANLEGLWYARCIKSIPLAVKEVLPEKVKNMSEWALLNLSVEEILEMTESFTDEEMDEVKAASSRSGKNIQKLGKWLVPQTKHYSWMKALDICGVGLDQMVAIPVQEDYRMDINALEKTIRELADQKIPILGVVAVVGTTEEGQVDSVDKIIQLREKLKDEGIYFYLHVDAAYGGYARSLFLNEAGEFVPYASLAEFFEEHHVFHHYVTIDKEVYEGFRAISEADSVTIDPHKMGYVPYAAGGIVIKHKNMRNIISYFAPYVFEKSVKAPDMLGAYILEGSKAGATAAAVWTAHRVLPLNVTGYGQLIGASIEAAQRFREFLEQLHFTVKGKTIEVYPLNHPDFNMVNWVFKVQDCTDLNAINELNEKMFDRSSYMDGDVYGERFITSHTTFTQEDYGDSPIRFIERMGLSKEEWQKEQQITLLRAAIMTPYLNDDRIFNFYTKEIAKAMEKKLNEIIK
T3 sequence (Q838D6 whole entry): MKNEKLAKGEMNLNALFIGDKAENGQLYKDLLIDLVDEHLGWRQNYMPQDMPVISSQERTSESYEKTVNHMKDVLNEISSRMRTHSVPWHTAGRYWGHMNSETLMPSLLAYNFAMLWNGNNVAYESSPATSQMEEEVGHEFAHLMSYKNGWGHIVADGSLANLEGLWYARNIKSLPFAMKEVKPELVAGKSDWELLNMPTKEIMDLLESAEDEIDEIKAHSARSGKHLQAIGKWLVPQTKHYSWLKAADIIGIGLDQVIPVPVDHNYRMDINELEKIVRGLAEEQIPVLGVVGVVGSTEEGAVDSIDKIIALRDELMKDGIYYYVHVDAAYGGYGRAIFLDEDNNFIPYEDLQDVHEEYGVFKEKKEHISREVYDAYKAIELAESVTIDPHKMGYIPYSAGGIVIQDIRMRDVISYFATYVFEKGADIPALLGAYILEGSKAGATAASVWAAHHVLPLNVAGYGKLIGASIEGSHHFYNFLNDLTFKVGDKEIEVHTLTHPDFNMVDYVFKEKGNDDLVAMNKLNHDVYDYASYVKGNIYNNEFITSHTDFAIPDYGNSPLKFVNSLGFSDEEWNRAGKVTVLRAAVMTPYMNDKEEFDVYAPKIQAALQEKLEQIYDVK
Chain of TDCEFM (Q3Y2S5 entry or part of it): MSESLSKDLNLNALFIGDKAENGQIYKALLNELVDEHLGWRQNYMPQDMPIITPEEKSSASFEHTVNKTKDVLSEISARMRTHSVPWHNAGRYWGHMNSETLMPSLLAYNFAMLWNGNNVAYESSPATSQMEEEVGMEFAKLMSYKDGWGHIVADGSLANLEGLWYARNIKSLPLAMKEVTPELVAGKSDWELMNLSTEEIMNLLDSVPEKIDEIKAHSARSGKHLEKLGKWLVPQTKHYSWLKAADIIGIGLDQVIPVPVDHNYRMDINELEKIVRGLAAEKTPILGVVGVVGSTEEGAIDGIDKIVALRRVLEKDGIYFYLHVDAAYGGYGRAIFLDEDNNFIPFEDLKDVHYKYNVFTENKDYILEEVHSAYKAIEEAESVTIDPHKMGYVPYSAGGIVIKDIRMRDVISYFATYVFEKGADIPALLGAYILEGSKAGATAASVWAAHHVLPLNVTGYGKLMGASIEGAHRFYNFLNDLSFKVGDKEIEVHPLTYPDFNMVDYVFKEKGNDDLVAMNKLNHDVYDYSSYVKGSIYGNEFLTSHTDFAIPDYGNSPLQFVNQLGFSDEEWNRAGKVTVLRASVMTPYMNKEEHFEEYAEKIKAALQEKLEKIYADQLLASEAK

The term Km denotes the substrate concentration at which the rate is half of its maximum. By Vmax is commonly meant the top rate of the reaction or transport when substrate is in excess. Take `N[C@@H](Cc1ccc(O)cc1)C(=O)O` [tyrosine, L-tyrosine]: the Kcat is 116 ± 4.8 s⁻¹ in series [1] (setting [11]), 7.26 ± 0.32 s⁻¹ in series [3] (setting [12]) and 36.73 ± 4.12 s⁻¹ in series [5] (setting [11]). Further, the Km stood at 600 ± 100 µM in [1] (setting [11]), 200 ± 50 µM in series [3] (setting [12]) and 1500 ± 300 µM in [5] (setting [11]). Moreover, the maximum rate (Vmax) in [1] (setting [11]) is reported as 69.6 ± 2.9 µM/min; in [3] (setting [12]), 4.4 ± 0.2 µM/min; in series [5] (setting [11]), 22 ± 2.5 µM/min. Also, the “conversion of tyrosine and levodopa into tyramine and dopamine by the culture” value in the series with E. faecium W54 [2], with E. faecalis v583 [4] and in the series with L. brevis W63 was “able to convert” throughout.
As usually defined, the IC50 is the concentration that gives 50% inhibition. High values mean weaker potency, low ones greater potency. Consider `C[C@@](Cc1ccc(O)c(O)c1)(NN)C(=O)O` [carbidopa], for which the “Ki^TDC/Ki^DDC, times more potent inhibitor of human DOPA decarboxylase than bacterial TDCs” value in [6] is 1.4–1.9 × 10^4. In addition, the IC50 turned out to be 93.8 µM against TDCEFS, 0.01 µM in series [8], 79.2 µM at TDCEFM and 201 µM against ^PTDCEFM. The HillSlope turned out to be 1.6 at TDCEFS (TDCEFS, IC50 curve); 1.16 in series [8] (DDC, IC50 curve); 1.3 on TDCEFM (TDCEFM, IC50 curve); 1.1 at ^PTDCEFM (PTDCEFM, IC50 curve). Moreover, the “[IC50]/[s]” value on TDCEFS (TDCEFS, [S] levodopa 1000 µM) is on record as 9%; in series [8] (DDC, [S] levodopa 100 µM), 0.01%; at TDCEFM (TDCEFM, [S] levodopa 1000 µM) it was 8%; at ^PTDCEFM (PTDCEFM, [S] levodopa 500 µM) it was 40%. For the same molecule, the Ki on TDCEFS (read-out: Ki=IC50/(1+([S]/Km))) was found to be 70.6 µM; in series [8] (read-out: Ki=IC50/(1+([S]/Km))), 0.005 µM; at TDCEFM (read-out: Ki=IC50/(1+([S]/Km))) it was 69.6 µM; on ^PTDCEFM (read-out: Ki=IC50/(1+([S]/Km))), 95.1 µM. For the same molecule, the “levodopa conversion by batch culture on co-incubation with carbidopa” value with E. faecalis v583 [7] and with E. faecium W54 [9] was “unaffected” in each case.
With `N[C@@H](Cc1ccc(O)c(O)c1)C(=O)O` [levodopa, L-3,4-dihydroxyphenylalanine], the Km in series [1] (setting [13]) is 3040 µM; in series [1] (setting [11]), 3000 ± 400 µM; in series [3] (PTDCEFM, levodopa as substrate, as used for Ki), 448 µM; in series [3] (setting [12]) it was 400 ± 100 µM; in series [5] (setting [13]), 7240 µM; in series [5] (setting [11]) it was 7200 ± 800 µM. Further, the Kcat in series [1] (setting [11]) was determined as 58.85 ± 2.28 s⁻¹; in [3] (setting [12]), 5.707 ± 0.35 s⁻¹; in series [5] (setting [11]) it was 42.48 ± 2.22 s⁻¹. The Vmax in [1] (setting [11]) amounted to 35.3 ± 1.4 µM/min; in series [3] (setting [12]), 3.4 ± 0.2 µM/min; in series [5] (setting [11]), 25.5 ± 1.3 µM/min.

B1: human DOPA decarboxylase (DDC) (Homo sapiens) (protein)
chain: MNASEFRRRGKEMVDYMANYMEGIEGRQVYPDVEPGYLRPLIPAAAPQEPDTFEDIINDVEKIIMPGVTHWHSPYFFAYFPTASSYPAMLADMLCGAIGCIGFSWAASPACTELETVMMDWLGKMLELPKAFLNEKAGEGGGVIQGSASEATLVALLAARTKVIHRLQAASPELTQAAIMEKLVAYSSDQAHSSVERAGLIGGVKLKAIPSDGNFAMRASALQEALERDKAAGLIPFFMVATLGTTTCCSFDNLLEVGPICNKEDIWLHVDAAYAGSAFICPEFRHLLNGVEFADSFNFNPHKWLLVNFDCSAMWVKKRTDLTGAFRLDPTYLKHSHQDSGLITDYRHWQIPLGRRFRSLKMWFVFRMYGVKGLQAYIRKHVQLSHEFESLVRQDPRFEICVEVILGLVCFRLKGSNKVNEALLQRINSAKKIHLVPCHLRDKFVLRFAICSRTVESAHVQRAWEHIKELAADVLRAERE
Regarding B1, the Michaelis-Menten constant (Km) in series [10] is listed as 87.3 µM.

For the origin of these results see article PMC6338741 (Nature Communications, 2019).
